The values that follow come from patent US20050223431A1, “Methods of modulating glucosinolate production in plants” (The Arizona Board of Regents on Behalf of the University of …, priority 2000, published 2005).

For data set [1], the target named is T1, CYP83B1 (Arabidopsis thaliana, UniProt O65782).
T1 sequence (O65782 1-499): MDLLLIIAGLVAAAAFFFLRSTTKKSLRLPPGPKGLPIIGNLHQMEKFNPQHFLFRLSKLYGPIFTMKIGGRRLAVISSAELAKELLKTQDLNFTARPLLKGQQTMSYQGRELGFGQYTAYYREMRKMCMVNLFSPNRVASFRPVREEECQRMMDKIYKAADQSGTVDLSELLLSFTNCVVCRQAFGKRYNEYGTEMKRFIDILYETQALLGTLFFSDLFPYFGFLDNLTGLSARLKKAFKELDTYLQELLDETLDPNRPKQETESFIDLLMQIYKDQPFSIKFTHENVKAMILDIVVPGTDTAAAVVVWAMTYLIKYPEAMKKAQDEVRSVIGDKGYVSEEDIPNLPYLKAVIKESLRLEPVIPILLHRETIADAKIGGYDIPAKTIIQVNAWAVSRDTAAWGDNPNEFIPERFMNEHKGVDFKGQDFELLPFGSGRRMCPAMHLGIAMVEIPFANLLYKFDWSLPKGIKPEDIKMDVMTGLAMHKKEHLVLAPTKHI
As to the kind of experiment: biochemical. As to conditions: for Type II spectrum (ligand binding to active site) / Relative affinity for ligand binding, from amplitudes of type II spectra: CYP83B1, 200 μM ligand. An excerpt: (§1) FIG. 6 is a spectral characterization of CYP83A1 and CYP83B1. […] 1) tryptamine, 2) β-phenylethylamine, 3) tyramine, 4) n-octylamine, 5) 5-OH-tryptamine, 6) 3-OH-tyramine, B) baseline.
(§2) To compensate for ligand absorbance, the experimental data were fitted to a hyperbolic curve using the equation A=Amax*X/(Ks+X)+C*X, where A is the amplitude of the spectra, X the concentration of ligand, and C the contribution from ligand absorbance. The computed regression curve is shown as well as the experimental data points.
(§3) Microsomes from yeast WAT11 cells expressing the CYP83A1 and CYP83B1 cDNA using the pYeDP60 vector were isolated and the amount of functional enzyme quantified essentially according to Pompon et al. (1996) Methods Enzymol. 272:51-64. […] 13:101-111 and references therein. Vmax and Km were determined as previously described using 2.2 nM of CYP83A1 or CYP83B1 and 50 mM L-cysteine as thiol donor (Bak et al. (2001) Plant Cell. 13:101-111). […] Vmax, Km, and Ks were calculated using SigmaPlot 5.0 (SPSS Inc.). For analysis of CYP83B1 activity in the presence or absence of thiol donors, recombinant CYP83B1 was reconstituted and analyzed as previously described (Bak et al. (2001) Plant Cell. 13:101-111).
(§4) To characterize the topology of the active sites of […] and CYP83B 1, we have taken advantage of the ability of nitrogen-containing ligands like primary amines to produce type II spectra with cytochrome P450 enzymes by binding to the active site bringing the electron lone pairs of the amine group in close vicinity to the heme iron (Jefcoate C. R. (1978) Methods Enzymol 27:258-279). This gives rise to a characteristic spectrum with a trough around 390 nm and a peak around 425 nm.
(§5) By titrating the amplitude of the type II difference spectra with increasing concentrations of ligand, Ks values were determined for tryptamine and β-phenylethylamine (FIG. 7).

The target of data set [2] is T2, CYP83A1 (Arabidopsis thaliana, UniProt P48421).
T2 sequence (P48421 1-502): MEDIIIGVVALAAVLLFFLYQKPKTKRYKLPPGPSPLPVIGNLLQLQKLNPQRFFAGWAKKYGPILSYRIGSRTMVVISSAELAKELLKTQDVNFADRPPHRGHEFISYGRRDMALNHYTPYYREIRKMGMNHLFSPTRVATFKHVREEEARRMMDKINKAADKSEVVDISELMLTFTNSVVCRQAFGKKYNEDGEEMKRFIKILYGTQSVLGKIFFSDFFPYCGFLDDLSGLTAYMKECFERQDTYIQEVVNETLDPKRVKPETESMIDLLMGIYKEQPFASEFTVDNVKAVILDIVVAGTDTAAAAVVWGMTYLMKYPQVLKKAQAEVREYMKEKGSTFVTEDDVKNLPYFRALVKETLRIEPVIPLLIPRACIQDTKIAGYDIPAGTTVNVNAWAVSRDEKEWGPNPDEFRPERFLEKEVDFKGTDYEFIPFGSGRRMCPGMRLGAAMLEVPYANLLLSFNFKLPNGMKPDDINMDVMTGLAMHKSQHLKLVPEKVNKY
As to the kind of experiment: biochemical. As to conditions: for Type II spectrum (ligand binding to active site) / Relative affinity for ligand binding, from amplitudes of type II spectra: CYP83A1, 200 μM ligand.
Source text: as §1, §2, §3, §4, §5

Data set [3] deals with T1, CYP83B1. As to the kind of experiment: Reconstitution with oximes, turnover numbers by GC-MS. As to conditions: CYP83B1 0.5 μM, 1 mM substrate, β-mercaptoethanol thiol donor, 20 min at 28° C. It is filed as biochemical. Further details: made in house; host or cells: yeast WAT11 cells, pYeDP60 vector; microsomes. Here is the method:
(§6) Turnover numbers were calculated based on the relative areas under the substrate and product peaks. Silylated substrates and products were identified by their fragmentation pattern in both electron impact mode and chemical ionization mode.
(§7) Reconstitution experiments were also conducted to compare the ability of CYP83A1 and CYP83B1 to metabolize other oximes. The putative substrates tested were p-hydroxyphenylacetaldoxime derived from tyrosine and phenylacetaldoxime derived from phenylalanine. In all studies, β-mercaptoethanol was the thiol donor. […] Conversely, the turnover of p-hydroxyphenylacetaldoxime was higher using CYP83A1 compared to CYP83B 1. Phenylacetaldoxime was identified as a substrate for CYP83A1 as well as for CYP83B1 but the turnover numbers were low (Table 1).

The target in data set [4] is T2, CYP83A1. The data set is described as above. Further details: made in house; host or cells: yeast WAT11 cells, pYeDP60 vector; microsomes. Particulars: CYP83A1 0.5 μM, 1 mM substrate, β-mercaptoethanol thiol donor, 20 min at 28° C. It is filed as biochemical. Here is the method: as §6, §7
Data set [5] has as its target T1, CYP83B1. As to the kind of experiment: Kinetics of indole-3-acetaldoxime metabolism by recombinant enzyme in yeast microsomes. Here is the method:
Computed regression curves as well as the experimental data points are shown. The correlation coefficients (R^2) for CYP83B1 and CYP83A1 regression analyses are 0.985 and 0.999, respectively.
as §3

Data set [6] relates to ON=CCc1c[nH]c2ccccc12. The data set is described as follows: cells, lysate or membranes named. As to conditions: other: CYP83A1 in yeast microsomes, 2.2 nM enzyme, 50 mM L-cysteine as thiol donor.
Data set [7] deals with T1, CYP83B1. Further details: made in house; host or cells: yeast WAT11 cells, pYeDP60 vector; microsomes. Particulars: cited from earlier work.
Substrate in data set [8]: ON=CCc1c[nH]c2ccccc12
The data set is described as follows: cells, lysate or membranes named. As to conditions: other: CYP83B1 in yeast microsomes, 2.2 nM enzyme, 50 mM L-cysteine as thiol donor.

In the case of `N#CCc1c[nH]c2ccccc12` [Indole-3-acetonitrile], the “Type II spectrum (ligand binding to active site)” value (shortened to “Type II spectrum”) in data set [1] and in data set [2] was “did not produce a type II spectrum” in each case.

As to `ON=CCc1c[nH]c2ccccc12` [indole-3-acetaldoxime], the figures for the “Turnover, indole-3-acetaldoxime” value in data set [3] and in data set [4] were 26 min⁻¹ and 10 min⁻¹, respectively. Besides, in data set [5] (indole-3-acetaldoxime as substrate), the “Fold higher catalytic efficiency (Vmax/Km), CYP83B1 compared to CYP83A1” value was 20 fold. Also, the “Fold difference in Km / affinity, CYP83B1 versus CYP83A1” value in data set [5] (indole-3-acetaldoxime, higher affinity (lower Km) for CYP83B1) stood at 50 fold.

In the case of CYP83A1 (Arabidopsis thaliana), in data set [6], the Km (in general, the concentration of substrate that gives half-maximal velocity) stood at 150 ± 15 µM; the catalytic constant (kcat) (commonly the number of substrate molecules converted per active site and unit of time at saturation) came out at 2.33 ± 0.167 s⁻¹.

On to `NCCc1c[nH]c2ccccc12` [tryptamine], for which the “Inhibition of metabolism of indole-3-acetaldoxime” value in data set [7] is “inhibits metabolism of indole-3-acetaldoxime”. In data set [1], the affinity, expressed as Kd, was 18 ± 5 µM and the “Relative affinity for ligand binding, from amplitudes of type II spectra” value (shortened to “Relative affinity for ligand binding”) is recorded as “tryptamine >>β-phenylethylanine>n-octylamine>tyramine”. In addition, in data set [1] (from Ks values), the “Fold stronger binding to CYP83B1 compared to CYP83A1” value turned out to be 13 fold and the “Fold stronger ligand for CYP83B1 compared to β-phenylethylamine” value is on record as 30 fold. Besides, in data set [2], the Kd (usually the concentration at which binding is half-saturated) is 240 ± 180 µM and the “Relative affinity for ligand binding” value is “n-octylamine>>α-phenylethylamine=tryptarine>tyramine”.

Take `CCCCCCCCN` [n-octylamine]: in data set [1], the “Relative affinity for ligand binding” value is reported as “tryptamine >>β-phenylethylanine>n-octylamine>tyramine” and the “Type II spectrum” value is recorded as “type II spectra were observed”. In data set [2], the “Relative affinity for ligand binding” value is given as “n-octylamine>>α-phenylethylamine=tryptarine>tyramine” and the “Type II spectrum” value is listed as “type II spectra were observed”.

As to `NCCc1c[nH]c2ccc(O)cc12` [5-OH-tryptamine], the “Type II spectrum” value in data set [1] and in data set [2] was “abolished binding” in each case.

On to `ON=CCc1ccccc1` [phenylethylacetaldoxime, phenylacetaldoxime], for which the Turnover phenylethylacetaldoxime in data set [3] was found to be 15 min⁻¹; in data set [4], 7.2 min⁻¹.

In the case of `NCCc1ccccc1` [β-phenylethylamine], in data set [1], the Kd was found to be 540 ± 180 µM; the “Relative affinity for ligand binding” value was “tryptamine >>β-phenylethylanine>n-octylamine>tyramine”; the “Type II spectrum” value is listed as “type II spectra were observed”. In addition, in data set [2], the Kd stood at 390 ± 70 µM; the “Relative affinity for ligand binding” value is “n-octylamine>>α-phenylethylamine=tryptarine>tyramine”; the “Type II spectrum” value is “type II spectra were observed”.

Regarding `ON=CCc1ccc(O)cc1` [p-hydroxyphenylacetaldoxime], the Turnover p-hydroxyphenylacetaldoxime was determined as 9.8 min⁻¹ in data set [3] and 25 min⁻¹ in data set [4].

B1: CYP83B1 (Arabidopsis thaliana) (protein)
chain: T1 sequence (O65782 1-499)
As to B1, the Km in data set [8] is 3.1 ± 0.4 µM.
